“Also recorded” adds a separate entry of the source.
Experiments:
Format in all cases: in vitro ADME
OATP1B3 = molecular target: T1, OATP1B3 (Homo sapiens, UniProt Q9NPD5); experiment: In vitro transporter substrate assessment
T1 construct: expressed in transfected cells; host or cells: HEK293
T1 sequence (Q9NPD5 1-702): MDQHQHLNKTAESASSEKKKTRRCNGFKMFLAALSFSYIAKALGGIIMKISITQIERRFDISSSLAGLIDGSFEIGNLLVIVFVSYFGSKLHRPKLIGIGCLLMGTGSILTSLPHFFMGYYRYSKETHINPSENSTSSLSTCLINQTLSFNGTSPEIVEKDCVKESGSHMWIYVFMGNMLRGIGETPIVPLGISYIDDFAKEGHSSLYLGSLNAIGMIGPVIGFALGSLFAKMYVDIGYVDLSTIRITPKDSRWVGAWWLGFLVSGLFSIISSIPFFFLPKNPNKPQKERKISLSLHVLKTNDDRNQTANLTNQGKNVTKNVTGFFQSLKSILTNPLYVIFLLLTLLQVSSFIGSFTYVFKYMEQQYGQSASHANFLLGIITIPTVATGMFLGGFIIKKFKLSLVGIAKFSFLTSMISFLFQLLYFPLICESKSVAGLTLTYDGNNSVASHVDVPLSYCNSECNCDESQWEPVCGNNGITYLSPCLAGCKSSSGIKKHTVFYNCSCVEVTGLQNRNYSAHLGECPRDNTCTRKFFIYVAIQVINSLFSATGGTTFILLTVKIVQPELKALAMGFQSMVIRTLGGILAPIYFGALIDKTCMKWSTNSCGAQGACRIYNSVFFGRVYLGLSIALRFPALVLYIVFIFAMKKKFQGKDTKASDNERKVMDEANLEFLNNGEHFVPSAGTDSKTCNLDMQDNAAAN
Description: (§1) Consequently, the elimination of rodatristat into bile may be impacted by co-administration with agents that are BCRP inhibitors.

MRP2 = MRP2 (Homo sapiens, UniProt Q92887); experiment: In vitro transporter substrate assessment
Description: as §1

P-gp [1] = molecular target: T2, P-gp (Homo sapiens, UniProt P08183); experiment: In vitro transporter substrate assessment
T2 construct: endogenous in cells; host or cells: Caco-2
Description: as §1

BCRP = molecular target: T3, BCRP (Homo sapiens, UniProt Q9UNQ0); experiment: In vitro transporter substrate assessment
T3 sequence (Q9UNQ0 1-655): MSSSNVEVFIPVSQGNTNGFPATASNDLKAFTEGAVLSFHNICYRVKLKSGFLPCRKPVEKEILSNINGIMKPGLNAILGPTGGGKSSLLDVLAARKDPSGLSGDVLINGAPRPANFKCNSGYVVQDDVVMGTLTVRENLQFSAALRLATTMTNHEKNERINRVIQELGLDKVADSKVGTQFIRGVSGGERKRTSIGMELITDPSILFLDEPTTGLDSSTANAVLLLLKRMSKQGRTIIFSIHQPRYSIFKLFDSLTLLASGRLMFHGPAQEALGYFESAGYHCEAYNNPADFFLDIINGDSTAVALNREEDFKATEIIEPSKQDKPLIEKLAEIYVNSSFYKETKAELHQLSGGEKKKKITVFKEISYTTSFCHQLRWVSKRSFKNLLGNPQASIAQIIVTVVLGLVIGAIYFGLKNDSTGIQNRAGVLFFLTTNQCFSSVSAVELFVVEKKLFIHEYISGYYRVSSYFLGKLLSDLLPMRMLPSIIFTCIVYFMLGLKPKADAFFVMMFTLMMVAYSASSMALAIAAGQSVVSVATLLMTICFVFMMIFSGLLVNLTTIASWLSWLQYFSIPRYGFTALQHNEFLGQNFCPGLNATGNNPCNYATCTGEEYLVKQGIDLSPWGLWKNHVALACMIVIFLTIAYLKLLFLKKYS
Description: as §1

P-gp [2] = molecular target: T2, P-gp; experiment: Transporter inhibition, Caco-2 cells, digoxin probe; settings: for Potential for interaction? (transporter inhibitor), P-gp: predicted @ 600 mg BID
Experimental: The competitive inhibition of specific transporters was investigated for RVT-1201 and KAR5417 in transporter-expressing in vitro systems (XT158039). Inhibition of P-gp was evaluated using a Caco-2 cell line with digoxin as probe substrate. Inhibition of OATP1B1 and OATP1B3 was evaluated using a HEK293 cell line expressing these transporters with estradiol-17β-glucuronide as probe substrate. In addition, inhibition of other transporters was also investigated (BCRP, OAT1, OAT3, OCT2, MATE1, MATE2-K). The IC50 estimates for P-gp (RVT-1201) and OATP1B1/3 (RVT-1201 and KAR5417) supported further evaluation of inhibition DDI potential using the PBPK model. For each IC50 estimate, substrate concentration and Km were used to estimate RVT-1201 and KAR5417 Ki with Equation 1 (Cheng and Prusoff, 1973).

CYP2C19 = CYP2C19 (Homo sapiens, UniProt P33261); experiment: In vitro CYP substrate assessment (victim potential)
CYP2B6 = molecular target: T4, CYP2B6 (Homo sapiens, UniProt P20813); experiment: as above
T4 sequence (P20813 1-491): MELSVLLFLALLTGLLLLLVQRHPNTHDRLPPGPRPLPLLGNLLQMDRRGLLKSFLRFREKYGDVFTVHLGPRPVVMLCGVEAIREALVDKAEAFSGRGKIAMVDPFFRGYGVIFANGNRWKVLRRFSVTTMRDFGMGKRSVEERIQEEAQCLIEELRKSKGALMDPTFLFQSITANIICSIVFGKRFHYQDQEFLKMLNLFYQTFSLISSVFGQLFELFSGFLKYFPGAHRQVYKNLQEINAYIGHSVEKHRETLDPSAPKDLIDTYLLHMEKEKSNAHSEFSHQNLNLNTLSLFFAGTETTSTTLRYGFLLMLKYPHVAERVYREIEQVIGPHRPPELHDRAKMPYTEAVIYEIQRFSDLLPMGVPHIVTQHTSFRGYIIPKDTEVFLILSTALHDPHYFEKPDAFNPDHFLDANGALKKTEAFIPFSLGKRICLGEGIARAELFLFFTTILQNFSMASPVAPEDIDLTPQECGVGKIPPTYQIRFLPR

CYP2C9 = CYP2C9 (Homo sapiens, UniProt P11712); experiment: as above
Sequence of CYP2C9 (P11712 whole entry): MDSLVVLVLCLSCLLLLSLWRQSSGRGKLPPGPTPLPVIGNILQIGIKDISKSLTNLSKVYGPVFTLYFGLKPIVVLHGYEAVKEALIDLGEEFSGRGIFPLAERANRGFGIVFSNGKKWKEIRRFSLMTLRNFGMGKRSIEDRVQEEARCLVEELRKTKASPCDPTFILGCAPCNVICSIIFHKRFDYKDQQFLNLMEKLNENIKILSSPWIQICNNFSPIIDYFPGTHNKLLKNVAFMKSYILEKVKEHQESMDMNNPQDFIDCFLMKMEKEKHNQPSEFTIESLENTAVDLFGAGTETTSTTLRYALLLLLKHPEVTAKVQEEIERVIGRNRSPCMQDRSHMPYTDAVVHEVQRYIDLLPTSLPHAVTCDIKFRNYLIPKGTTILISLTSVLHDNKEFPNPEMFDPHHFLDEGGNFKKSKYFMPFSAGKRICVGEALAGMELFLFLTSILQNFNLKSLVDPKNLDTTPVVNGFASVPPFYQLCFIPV

Sequence of MRP2 (Q92887 whole entry): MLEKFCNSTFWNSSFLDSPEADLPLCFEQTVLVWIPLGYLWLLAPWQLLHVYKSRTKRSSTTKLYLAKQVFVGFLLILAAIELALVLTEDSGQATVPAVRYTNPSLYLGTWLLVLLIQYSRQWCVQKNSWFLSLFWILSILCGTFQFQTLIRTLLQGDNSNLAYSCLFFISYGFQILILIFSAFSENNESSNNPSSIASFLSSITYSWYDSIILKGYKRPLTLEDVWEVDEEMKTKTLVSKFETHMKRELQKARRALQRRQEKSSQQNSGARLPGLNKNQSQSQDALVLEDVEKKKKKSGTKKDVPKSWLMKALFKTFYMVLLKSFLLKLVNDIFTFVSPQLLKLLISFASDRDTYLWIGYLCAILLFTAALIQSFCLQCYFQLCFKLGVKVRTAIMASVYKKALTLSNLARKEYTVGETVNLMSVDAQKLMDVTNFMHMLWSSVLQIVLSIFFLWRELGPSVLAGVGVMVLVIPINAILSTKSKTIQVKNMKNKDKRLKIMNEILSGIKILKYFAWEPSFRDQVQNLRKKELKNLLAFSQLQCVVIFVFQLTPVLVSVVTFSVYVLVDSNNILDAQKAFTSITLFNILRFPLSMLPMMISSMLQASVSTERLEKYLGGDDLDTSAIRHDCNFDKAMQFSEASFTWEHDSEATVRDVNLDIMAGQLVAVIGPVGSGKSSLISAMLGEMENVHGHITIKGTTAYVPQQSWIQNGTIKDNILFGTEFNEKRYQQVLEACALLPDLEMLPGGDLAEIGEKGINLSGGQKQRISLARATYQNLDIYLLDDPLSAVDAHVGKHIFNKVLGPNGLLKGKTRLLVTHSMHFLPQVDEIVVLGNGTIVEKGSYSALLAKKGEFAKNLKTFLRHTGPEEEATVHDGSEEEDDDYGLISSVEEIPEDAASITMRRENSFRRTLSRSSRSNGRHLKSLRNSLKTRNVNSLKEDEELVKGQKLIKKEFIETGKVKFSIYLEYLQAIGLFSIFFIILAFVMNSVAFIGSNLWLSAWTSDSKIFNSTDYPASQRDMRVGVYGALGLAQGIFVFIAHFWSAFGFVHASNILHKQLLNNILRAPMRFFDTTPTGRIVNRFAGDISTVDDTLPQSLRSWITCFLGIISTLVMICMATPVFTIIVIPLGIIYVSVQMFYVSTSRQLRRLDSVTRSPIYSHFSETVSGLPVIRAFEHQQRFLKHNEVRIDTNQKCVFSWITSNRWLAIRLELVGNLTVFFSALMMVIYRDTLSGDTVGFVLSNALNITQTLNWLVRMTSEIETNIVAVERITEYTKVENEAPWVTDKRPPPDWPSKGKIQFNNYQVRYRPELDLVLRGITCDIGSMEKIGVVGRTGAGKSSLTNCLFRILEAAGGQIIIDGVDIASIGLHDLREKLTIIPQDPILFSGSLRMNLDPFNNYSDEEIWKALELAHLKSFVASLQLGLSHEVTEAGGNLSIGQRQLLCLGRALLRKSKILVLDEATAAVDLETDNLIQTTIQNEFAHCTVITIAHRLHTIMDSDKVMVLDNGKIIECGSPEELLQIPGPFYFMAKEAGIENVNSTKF
T2 sequence (P08183 whole entry): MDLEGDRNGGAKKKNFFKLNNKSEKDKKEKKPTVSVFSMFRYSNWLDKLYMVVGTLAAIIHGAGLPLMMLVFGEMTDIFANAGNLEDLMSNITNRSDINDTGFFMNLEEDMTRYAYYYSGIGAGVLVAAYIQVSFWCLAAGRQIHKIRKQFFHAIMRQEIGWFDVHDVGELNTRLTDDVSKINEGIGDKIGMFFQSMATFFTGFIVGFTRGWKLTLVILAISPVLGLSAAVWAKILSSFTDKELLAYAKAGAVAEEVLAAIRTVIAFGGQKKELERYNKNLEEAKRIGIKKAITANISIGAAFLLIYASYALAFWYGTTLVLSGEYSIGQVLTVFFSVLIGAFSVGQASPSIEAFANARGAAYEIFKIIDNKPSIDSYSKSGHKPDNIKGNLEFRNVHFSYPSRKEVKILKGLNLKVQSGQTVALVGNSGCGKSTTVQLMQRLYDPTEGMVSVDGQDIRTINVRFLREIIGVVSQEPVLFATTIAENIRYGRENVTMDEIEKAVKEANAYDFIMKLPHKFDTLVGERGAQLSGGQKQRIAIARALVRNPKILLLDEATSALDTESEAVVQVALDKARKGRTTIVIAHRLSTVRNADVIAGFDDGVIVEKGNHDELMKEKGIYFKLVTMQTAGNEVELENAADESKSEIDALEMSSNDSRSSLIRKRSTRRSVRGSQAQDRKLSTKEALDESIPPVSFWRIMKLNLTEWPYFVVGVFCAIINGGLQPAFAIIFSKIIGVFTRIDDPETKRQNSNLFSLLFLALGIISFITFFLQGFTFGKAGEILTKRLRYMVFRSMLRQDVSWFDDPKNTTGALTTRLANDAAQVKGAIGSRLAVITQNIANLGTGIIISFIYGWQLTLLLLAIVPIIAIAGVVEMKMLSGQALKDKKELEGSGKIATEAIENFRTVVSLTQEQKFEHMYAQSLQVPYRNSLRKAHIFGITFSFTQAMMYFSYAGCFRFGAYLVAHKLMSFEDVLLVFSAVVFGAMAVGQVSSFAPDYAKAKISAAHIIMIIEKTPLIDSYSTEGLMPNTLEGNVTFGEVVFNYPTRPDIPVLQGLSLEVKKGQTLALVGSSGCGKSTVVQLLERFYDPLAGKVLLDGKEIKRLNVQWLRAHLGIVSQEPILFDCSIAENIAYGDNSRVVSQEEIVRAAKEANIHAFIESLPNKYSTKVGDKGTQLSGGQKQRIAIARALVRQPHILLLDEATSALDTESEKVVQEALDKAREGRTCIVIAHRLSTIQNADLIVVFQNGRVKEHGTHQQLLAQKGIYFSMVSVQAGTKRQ
Sequence of CYP2C19 (P33261 whole entry): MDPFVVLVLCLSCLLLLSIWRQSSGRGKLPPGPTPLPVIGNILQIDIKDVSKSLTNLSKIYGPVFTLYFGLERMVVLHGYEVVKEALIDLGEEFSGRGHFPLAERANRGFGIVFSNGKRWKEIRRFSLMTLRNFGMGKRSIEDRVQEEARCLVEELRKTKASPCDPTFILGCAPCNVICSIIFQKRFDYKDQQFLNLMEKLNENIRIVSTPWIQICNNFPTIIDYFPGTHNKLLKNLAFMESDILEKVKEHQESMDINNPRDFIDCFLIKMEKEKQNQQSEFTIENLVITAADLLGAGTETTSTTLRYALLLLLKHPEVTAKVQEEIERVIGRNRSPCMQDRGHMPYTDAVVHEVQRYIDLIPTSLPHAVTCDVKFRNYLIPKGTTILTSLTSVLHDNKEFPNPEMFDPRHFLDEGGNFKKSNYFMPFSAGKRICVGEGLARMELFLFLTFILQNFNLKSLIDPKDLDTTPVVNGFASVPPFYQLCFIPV

SMILES | In vitro substrate? OATP1B3 (OATP1B3) | In vitro substrate? MRP2 (MRP2) | In vitro substrate? P-gp (P-gp [1]) | In vitro substrate? BCRP (BCRP) | IC50 (P-gp [2]; Caco 2 cells, read-out: In vitro IC50, P-gp) | Potential for interaction? (transporter inhibitor), P-gp (P-gp [2]) | In vitro substrate? CYP2C19 (CYP2C19) | In vitro substrate? CYP2B6 (CYP2B6) | In vitro substrate? CYP2C9 (CYP2C9) | Accumulation by OATP1B3 uptake transporter (OATP1B3; 3 μM) | Inhibition of P-gp (in words) (P-gp [2])
CCOC(=O)[C@@H]1CC2(CCN(c3cc(O[C@H](c4ccc(Cl)cc4-c4ccccc4)C(F)(F)F)nc(N)n3)CC2)CN1 [Rodatristat ethyl, (S)-ethyl 8-(2-amino-6-((R)-1-(5-chloro-[1,1′-biphenyl]-2-yl)-2,2,2-trifluoroethoxy)pyrimidin-4-yl)-2,8-diazaspiro[4.5]decane-3-carboxylate] | not a substrate and No | not a substrate; also recorded: not likely | not a substrate; also recorded: not likely | not a substrate; also recorded: not likely | 3.32 µM | Yes | No | No | No | – | –
Nc1nc(O[C@H](c2ccc(Cl)cc2-c2ccccc2)C(F)(F)F)cc(N2CCC3(CC2)CN[C@H](C(=O)O)C3)n1 [Rodatristat, (S)-8-(2-amino-6-((R)-1-(5-chloro-[1,1′-biphenyl]-2-yl)-2,2,2-trifluoroeth-oxy)pyrimidin-4-yl)-2,8-diazaspiro[4.5]decane-3-carboxylic acid] | is an in vitro substrate and Yes | not an in vitro substrate; also recorded: Not likely | potential substrate | potential substrate | – | No | No | No | No | 9.28 fold | not an inhibitor
